Results from patent US12616203B2, “Use of 3-isoxazolidinones compounds as selective herbicides” (FMC Corporation, priority 2014, dated 2026).

Tests used:
Ivyleaf morningglory = test: Ex17 PRE 2,4 DC + isoxaflutole, % control 28 DAT, Colby; format: in vivo, Ipomoea hederacea
Procedure: (§1) In this example a study was conducted to determine weed efficacy and sugarcane injury when 2,4 DC or isoxaflutole are applied either alone or tank-mix as preemergence against the weeds: Ivyleaf morningglory (Ipomoea hederacea, IPOHE), hairy beggartickss (Bidens pilosa, BIDPI), yellow nutsedge (Cyperus esculentus, CYPES), large crabgrass (Digitaria sanguinalis, DIGSA), and redroot pigweed (Amaranthus retroflexus, AMARE). The crop tested in this study was Sugarcane (var. CTC 20).
To determine weed efficacy and sugarcane selectivity, 2,4 DC (SC 36%) and isoxaflutole (Balance Flexx®, 20%) were applied PRE either alone or as tank-mix partners at rates mentioned below. 2,4 DC was applied at 500, 750, and 1000 g ai/ha while isoxaflutole was applied at 80, 100, and 120 g ai/ha. […] Treatments were applied PRE to sugarcane (var. CTC 20), ivyleaf morningglory, hairy beggarticks, yellow nutsedge, large crabgrass, and redroot pigweed. […] Soil was watered before application and watered lightly after application. Flats were watered and fertilized routinely after treatment application.

Common lambsquarters = test: Ex34 PRE 2,4-DC + napropamide, % control, Colby; format: in vivo, Chenopodium album; details: 28 DAT
Description: Thereafter flats were watered and fertilized routinely.

weeds = test: Ex24 PRE greenhouse; format: in vivo; details: weed and rate in the words
Description: The tested weeds include Giant foxtail (Setaria faberi, SETFA), green foxtail (Setaria virdis, SETVI), yellow foxtail (Setaria pumila, SETLU), black nightshade (Solanum nigrum, SOLNI), kochia (Kochia scoparia, KCHSC), redroot pigweed (Amaranthus retroflexus, AMARE), common ragweed (Ambrosia artemisiifolia, AMBEL), barnyardgrass (Echinochloa crus-galli, ECHCG), large crabgrass (Digitaria sanguinalis, DIGSA).
To determine PRE efficacy, five levels of 2,4 DC-21 (36.7% CS) 0, 125, 170, 210, or 250 g ai/ha and five levels of pyroxasulfone (KIH485-85WG) 0, 50, 65, 80, or 95 g ai/ha were applied either alone or as tank-mix. Additional treatments consisted of premix of pyroxasulfone plus fluthiacet-methyl (Anthem™ 23.3%) at 169.9 g ai/ha, S-metolachlor (Dual II Magnum®, 82.4%) at 1388 g, and tank-mix of mesotrione (Callisto®, 40%) at 123 g plus S-metolachlor at 1252 g. […] Treatments were applied before the emergence of black nightshade, giant foxtail, green foxtail, yellow foxtail, large crabgrass, kochia, redroot pigweed, common ragweed, and bamyardgrass. […] Flats were watered and fertilized routinely after treatment application. Each treatment was replicated three times.

Velvetleaf = test: Ex33 PRE 2,4-DC + fluthiacet-methyl + pyroxasulfone, % control 28 DAT, Colby; format: in vivo, Abutilon theophrasti
Description: ANTHEM® (fluthiacet-methyl, 0.69% plus pyroxasulfone, 22.61%) was included as a standard at labeled rate, Fluthiacet-methyl at 4.9 g ai/ha and pyroxasulfone at 165 g ai/ha. […] The following weeds were screened, Palmer amaranth, Pennsylvania smartweed, velvetleaf, green foxtail, morningglory, Italian ryegrass, prickly sida, and yellow nutsedge. Crops screened were cotton, lentil, mung bean, bush bean, and cowpea. […] Thereafter flats were watered and fertilized routinely.

jimsonweed = test: Ex15 PRE 2,4-DC + S-metolachlor, % control 28 DAT, Colby; format: in vivo, Datura stramonium
Description: The weeds tested in this study were redroot pigweed (Amaranthus retroflexus, AMARE), Jimsonweed (Datura stramonium, DATST), black nightshade (Solanum nigrum, SOLNI), large crabgrass (Digitaria sanguinalis, DIGSA), Pennsylvania smartweed (Polygonum pensylvanicum, POLPY), horseweed (Conyza canadensis, ERICA), wild buckwheat (Polygonum convolvulus, POLCO). The crop tested was Corn (var. Viking).
To determine PRE efficacy and corn injury, five rates of each 2,4 DC (36.7% CS) and S-metolachlor (Dual II Magnum®, 82.4%) were applied either alone or as tank-mix. 2,4 DC was applied at 0, 125, 170, 210, or 250 g ai/ha and S-metolachlor was applied at 0, 267, 534, 801, or 1070 g ai/ha. Additional treatments included application of premix of pyroxasulfone plus fluthiacet-methyl (Anthem™ 23.3%) at 169.9 g ai/ha and tank-mix of mesotrione (Callisto®, 40%) at 123 g plus S-metolachlor at 1252 g. Treatments were applied just after the planting of large crabgrass, Jimsonweed, black nightshade, redroot pigweed, Pennsylvania smartweed, horseweed, wild buckwheat, and corn.
Flats were watered and fertilized routinely after treatment application. Each treatment was replicated three times. […] Corn injury was rated for bleaching and stunting.

weeds; canola, and wheat = test: Ex30 PRE greenhouse; format: in vivo
Description: Treatments were applied before the emergence of Italian ryegrass, wild oat, blackgrass, littleseed canarygrass, common chickweed, common lambsquarters, corn poppy, silky windgrass, redroot pigweed, wild mustard, annual bluegrass, canola, and wheat. […] Flats were watered and fertilized routinely after treatment application.

weeds; wheat, and corn = test: Ex38 PRE greenhouse; format: in vivo; details: rate in the words
Description: Pyroxasulfone plus fluthiacet-methyl (ANTHEM™, 23.3%) applied at 165 g ai/ha was included as a standard for comparison. […] Thereafter flats were watered and fertilized routinely.

[1] = tested on: weeds; Sugarcane (var. CTC 20); test: Ex17 PRE greenhouse; format: in vivo; details: weed and rate in the words
Procedure: as §1
To determine weed efficacy and sugarcane selectivity, 2,4 DC (SC 36%) and isoxaflutole (Balance Flexx®, 20%) were applied PRE either alone or as tank-mix partners at rates mentioned below. 2,4 DC was applied at 500, 750, and 1000 g ai/ha while isoxaflutole was applied at 80, 100, and 120 g ai/ha. […] Treatments were applied PRE to sugarcane (var. CTC 20), ivyleaf morningglory, hairy beggarticks, yellow nutsedge, large crabgrass, and redroot pigweed. Weed species were planted in fiber flats (6″×10″) containing Pennington soil. Soil was watered before application and watered lightly after application. Flats were watered and fertilized routinely after treatment application.

CC1(C)CON(Cc2ccc(Cl)cc2Cl)C1=O [2,4-DC, 2-(2,4-dichlorophenyl)methyl-4,4-dimethyl-3-isoxazolidinone]
X (Ivyleaf morningglory; 2,4-DC alone 500 g ai/ha): 67% | X (Ivyleaf morningglory; 2,4-DC alone 750 g ai/ha): 78% | X (Ivyleaf morningglory; 2,4-DC alone 1000 g ai/ha): 88% | X (Common lambsquarters; 2,4-DC alone 31 g ai/ha): 28% | X (Common lambsquarters; 2,4-DC alone 63 g ai/ha): 43% | X (Common lambsquarters; 2,4-DC alone 125 g ai/ha): 85% | X (Common lambsquarters; 2,4-DC alone 250 g ai/ha): 91% | X (Common lambsquarters; 2,4-DC alone 375 g ai/ha): 93% | weed control in words (weeds): alone controlled kochia at 210 g ai/ha, barnyardgrass and large crabgrass at 125 g, giant foxtail and green foxtail at 170 g | X (Velvetleaf; 2,4-DC alone 31 g ai/ha): 7% | X (Velvetleaf; 2,4-DC alone 63 g ai/ha): 23% | X (Velvetleaf; 2,4-DC alone 125 g ai/ha): 27% | X (Velvetleaf; 2,4-DC alone 250 g ai/ha): 30% | X (Velvetleaf; 2,4-DC alone 375 g ai/ha): 89% | X (jimsonweed; 2,4-DC alone 125 g ai/ha): 37% | X (jimsonweed; 2,4-DC alone 170 g ai/ha): 40% | X (jimsonweed; 2,4-DC alone 210 g ai/ha): 48% | X (jimsonweed; 2,4-DC alone 250 g ai/ha): 53% | injury to canola (weeds; canola, and wheat; at 100 g): 11% | injury to wheat (weeds; canola, and wheat; at 200 g): 11% | weed control in words (weeds; canola, and wheat; weed and rate in the words): alone gave control of pigweed, corn poppy, and Italian ryegrass at ≥200 g ai/ha, wild oat at 400 g, blackgrass at ≥100 g, and common chickweed at all rates | weed control / crop safety in words (weeds; wheat, and corn): applied alone at ≥50 g ai/ha controlled (≥85%) kochia, at ≥200 g controlled Italian ryegrass or redroot pigweed, and controlled velvetleaf at 400 g | weed control in words [1]: Large crabgrass and redroot pigweed were controlled with 2,4 DC alone at 500 g or higher rates
